Source: patent publication US20230174484A1, “ANTAGONISTS OF GPR39 PROTEIN” (Oregon Health & Science University, priority 2020, published 2023)

Biological target: T1, human GPR39 receptor (Homo sapiens, UniProt O43194)
T1 construct: PC3 Cells, Expressing the Endogenous Human GPR39 Receptor; endogenous in cells; host or cells: PC3 (human prostate adenocarcinoma) cells
T1 sequence (O43194 1-453): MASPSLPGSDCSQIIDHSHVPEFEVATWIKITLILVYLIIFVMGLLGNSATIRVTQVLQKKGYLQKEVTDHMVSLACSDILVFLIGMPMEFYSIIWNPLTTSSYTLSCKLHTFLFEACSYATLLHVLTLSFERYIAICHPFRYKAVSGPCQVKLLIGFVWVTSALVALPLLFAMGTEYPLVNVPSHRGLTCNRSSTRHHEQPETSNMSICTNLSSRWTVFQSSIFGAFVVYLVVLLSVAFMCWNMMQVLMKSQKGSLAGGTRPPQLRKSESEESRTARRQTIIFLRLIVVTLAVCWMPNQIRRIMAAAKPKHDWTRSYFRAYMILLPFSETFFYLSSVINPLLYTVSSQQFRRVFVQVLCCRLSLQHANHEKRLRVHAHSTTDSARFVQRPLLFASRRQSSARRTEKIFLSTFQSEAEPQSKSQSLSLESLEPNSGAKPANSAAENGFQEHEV
Assay: Measurement of intracellular calcium response in PC3 cells (FLIPR), antagonism of the C3 agonist response
Format: cell-based
Settings: functional pKi (modified Cheng-Prusoff), inhibition of the C3 (TC-G 1008) response at EC90, 30 μM ZnCl2, read-out: fpKi activity
Summary of the method: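 PC3 cells with endogenous human GPR39 were loaded with Calcium-6 and read by FLIPR, with compounds tested in buffer with 30 μM final ZnCl2 and 0.32% DMSO. Peak Ca2+ signal was scored as % inhibition of the EC90 C3 response, fitted by four-parameter logistic. Functional pKi was derived via the modified Cheng-Prusoff equation.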

| Compound | Ki [nM] |
| --- | --- |
| CN(C)CCSc1nnc(-c2ccc(NC(=O)C3CC3)cc2N2CCCCCC2)n1C [Example 111, N-[3-(azepan-1-yl)-4-[5-[2-(dimethylamino)ethylsulfanyl]-4-methyl-1,2,4-triazol-3-yl]phenyl]Cyclopropanecarboxamide] | 1260 to 6310 |
| O=C(Nc1ccc(C(=O)N2CCN(Cc3cccc(F)c3)CC2)c(N2CCCCCC2)c1)C1CC1 [Example 26, N-(3-(azepan-1-yl)-4-(4-(3-fluorobenzyl)piperazine-1-carbonyl)phenyl) Cyclopropanecarboxamide] | 63.1 to 251 |
| CN1CCN(C(=O)c2ccc(NC(=O)C3CC3)cc2N2CCC(F)(F)C2)C(c2ccccc2)C1 (single isomer, unassigned) [Example 202b, N-[3-(3,3-difluoropyrrolidin-1-yl)-4-(2R or 2S)-4-methyl-2-phenylpiperazine-1-carbonyl)phenyl]cyclopropanecarboxamide] | ≤ 50.1 |
| CN1CCN(C(=O)c2ccc(NC(=O)C3CC3)cc2N2CCCCCC2)C(C(F)(F)F)C1 (stereo not shown) [Example 75, N-[3-(azepan-1-yl)-4-[4-methyl-2-(trifluoromethyl)piperazine-1-carbonyl]phenyl]Cyclopropanecarboxamide] | 316 to 1000 |
| CN1CCN(C(=O)c2ccc(NC(=O)C3CC3)cc2N2CCC3(CCC3)C2)C(c2ccccc2)C1 (single isomer, unassigned) [Example 66a, N-[3-(6-azaspiro[3.4]octan-6-yl)-4-(4-methyl-2-phenylpiperazine-1-carbonyl)phenyl]cyclopropanecarboxamide] | ≤ 50.1 |
| CN1CCN(C(=O)c2ccc(NC(=O)C3CC3)cc2N2CCC3(CCC3)C2)C(c2ccccc2)C1 (racemic) [Example 66c, N-[3-(6-azaspiro[3.4]octan-6-yl)-4-(4-methyl-2-phenylpiperazine-1-carbonyl)phenyl]cyclopropanecarboxamide] | ≤ 50.1 |
| CC1CCN(c2cc(NC(=O)C3CC3)ccc2C(=O)N2CCN(C)CC2c2ccccc2)C1 (single isomer, unassigned) [Example 64a, (2S, 3R) or (2R, 3S) or (2R, 3R) or (2S, 3S) N-[4-(4-methyl-2-phenylpiperazine-1-carbonyl)-3-(3-methylpyrrolidin-1-yl)phenyl] cyclopropanecarboxamide] | ≤ 50.1 |
| CN1CCN(C(=O)c2ccc(NC(=O)C3CC3)cc2N2CCCCCC2)C(c2ccsc2)C1 (single isomer, unassigned) [Example 70a, N-(3-(azepan-1-yl)-4-(4-methyl-2-(thiophen-3-yl)piperazine-1-carbonyl)phenyl)cyclopropane carboxamide] | 1260 to 6310 |
| CN1CCN(C(=O)c2ccc(NC(=O)C3CC3)cc2N2CCCCCC2)C(c2cccs2)C1 (single isomer, unassigned) [Example 69a, N-(3-(azepan-1-yl)-4-(4-methyl-2-(thiophen-2-yl)piperazine-1-carbonyl)phenyl) cyclopropane carboxamide] | 1260 to 6310 |
| CN1CCN(C(=O)c2ccc(NC(=O)C3CC3)cc2N2CCC3(COC3)C2)C(c2cccc(Cl)c2)C1 (stereo not shown) [Example 212, N-[4-[2-(3-chlorophenyl)-4-methylpiperazine-1-carbonyl]-3-(2-oxa-7-azaspiro[3.4]octan-7-yl)phenyl]cyclopropanecarboxamide] | 63.1 to 251 |
| CC1CN(C(=O)c2ccc(NC(=O)C3CC3)cc2N2CCCCCC2)CCN1C (stereo not shown) [Example 55, N-[3-(azepan-1-yl)-4-(3,4-dimethylpiperazine-1-carbonyl)phenyl]cyclopropanecarboxamide] | 316 to 1000 |
| O=C(Nc1ccc(C(=O)N2CCN(Cc3ncco3)CC2c2ccccc2)c(N2CCCCCC2)c1)C1CC1 (stereo not shown) [Example 83, N-[3-(azepan-1-yl)-4-[4-(1,3-oxazol-2-ylmethyl)-2-phenylpiperazine-1-carbonyl]phenyl]cyclopropanecarboxamide] | 63.1 to 251 |
| O=C(Nc1ccc(C(=O)N2CCS(=O)(=O)CC2)c(N2CCC(C(F)(F)F)C2)c1)C1CC1 (racemic) [Example 183c, N-[4-(1,1-dioxo-1,4-thiazinane-4-carbonyl)-3-[3-(trifluoromethyl)pyrrolidin-1-yl]phenyl]cyclopropanecarboxamide] | 63.1 to 251 |
| O=C(Nc1ccc(C(=O)N2CCS(=O)(=O)CC2)c(-n2cc(C(F)(F)F)cn2)c1)C1CC1 [Example 182, N-[4-(1,1-dioxo-1,4-thiazinane-4-carbonyl)-3-[4-(trifluoromethyl)pyrazolyl]phenyl]cyclopropanecarboxamide] | 316 to 1000 |
| COc1ccccc1CN1CCN(C(=O)c2ccc(NC(=O)C3CC3)cc2N2CCCCCC2)CC1 [Example 27, N-(3-(azepan-1-yl)-4-(4-(2-methoxybenzyl)piperazine-1-carbonyl)phenyl) cyclopropanecarboxamide] | 316 to 1000 |
| CN1CCn2c(cnc2-c2ccc(NC(=O)C3CC3)cc2N2CCCC2)C1 [Example 103, N-[4-(7-methyl-6,8-dihydro-5H-imidazo[1,5-a]pyrazin-3-yl)-3-pyrrolidin-1-ylphenyl]cyclopropanecarboxamide] | 316 to 1000 |

| Compound | Ki [nM] |
| --- | --- |
| CCCN1CCN(C(=O)c2ccc(-c3nnc(C4CC4)[nH]3)cc2N2CCCCCC2)CC1 [Example 118, [2-(azepan-1-yl)-4-(5-cyclopropyl-4H-1,2,4-triazol-3-yl)phenyl]-(4-propylpiperazin-1-yl)methanone] | 316 to 1000 |
| CN1CCN(C(=O)c2ccc(-c3nccn3C)cc2N2CCCC2)C(c2ccccc2)C1 (racemic) [Example 121, [4-(1-methylimidazol-2-yl)-2-pyrrolidin-1-ylphenyl]-(4-methyl-2-phenylpiperazin-1-yl)methanone] | 1260 to 6310 |
| CCCN1CCn2c(cnc2-c2ccc(NC(=O)C3CC3)cc2N2CCCCCC2)C1 [Example 105, N-[3-(azepan-1-yl)-4-(7-propyl-6,8-dihydro-5H-imidazo[1,5-a]pyrazin-3-yl)phenyl]cyclopropanecarboxamide] | 63.1 to 251 |
| CN1CCN(C(=O)c2ccc(NC(=O)C3CC3)nc2N2CCC(F)(F)C2)C(c2ccccc2)C1 (single isomer, unassigned) [Example 148a, (2R or 2S) N-[6-(3,3-difluoropyrrolidin-1-yl)-5-(4-methyl-2-phenylpiperazine-1-carbonyl)pyridin-2-yl]cyclopropanecarboxamide] | 63.1 to 251 |
| CCCN1CCN(C(=O)c2ccc(NC(=O)C3CC3)cc2N2CCc3ccccc3C2)CC1 [Example 18, N-(3-(3,4-dihydroisoquinolin-2(1H)-yl)-4-(4-propylpiperazine-1-carbonyl)phenyl)cyclopropane carboxamide] | 316 to 1000 |
| O=C(Nc1ccc(C(=O)N2CCS(=O)(=O)CC2)c(-n2ccc(C(F)(F)F)n2)c1)C1CC1 [Example 181, N-[4-(1,1-dioxo-1,4-thiazinane-4-carbonyl)-3-[3-(trifluoromethyl)pyrazol-1-yl]phenyl]cyclopropanecarboxamide] | ≤ 50.1 |
| O=C(Nc1ccc(C(=O)N2CCC3(CC2)COC3)c(N2CCC(C(F)(F)F)C2)c1)C1CC1 (racemic) [Example 213c, N-[4-(2-oxa-7-azaspiro[3.5]nonane-7-carbonyl)-3-[3-(trifluoromethyl)pyrrolidin-1-yl]phenyl]cyclopropanecarboxamide] | 63.1 to 251 |
| Cc1nnc(-c2ccc(NC(=O)C3CC3)cc2N2CCCCCC2)n1C [Example 113, N-[3-(azepan-1-yl)-4-(4,5-dimethyl-1,2,4-triazol-3-yl)phenyl]cyclopropanecarboxamide] | 1260 to 6310 |
| CN1CCN(C(=O)c2ccc(NC(=O)C3CC3)cc2N2CCCC2)C(c2cccs2)C1 (single isomer, unassigned) [Example 86b, N-[4-(4-methyl-2-thiophen-2-ylpiperazine-1-carbonyl)-3-pyrrolidin-1-ylphenyl]cyclopropanecarboxamide] | ≤ 50.1 |
| CCCN1CCN(C(=O)c2ccc(NC(=O)CC)cc2N2CCCCCC2)CC1 [Example 94, N-(3-(azepan-1-yl)-4-(4-propylpiperazine-1-carbonyl)phenyl)propionamide] | 316 to 1000 |
| CCCN1CCN(C(=O)c2ccc(Nc3nnc(C4CC4)[nH]3)cc2N2CCCCCC2)CC1 [Example 98] | 1260 to 6310 |
| O=C(Nc1ccc(C(=O)N2CCN(c3cccnc3)CC2)c(N2CCCCCC2)c1)C1CC1 [Example 51, N-(3-(azepan-1-yl)-4-(4-(pyridin-3-yl)piperazine-1-carbonyl)phenyl) Cyclopropanecarboxamide] | 63.1 to 251 |
| Cc1nnc(-c2ccc(C(=O)N3CCC(F)(F)CC3)c(-n3ccc(C(F)(F)F)n3)c2)[nH]1 [Example 208] | ≤ 50.1 |
| O=C(Nc1ccc(C(=O)N2CCS(=O)(=O)CC2)c(N2CCC3(CCC3)C2)n1)C1CC1 [Example 143, N-[6-(6-azaspiro[3.4]octan-6-yl)-5-(1,1-dioxo-1,4-thiazinane-4-carbonyl)pyridin-2-yl]cyclopropanecarboxamide] | ≤ 50.1 |
| CN1CCN(C(=O)c2ccc(NC(=O)C3CC3)cc2N2CCCCC2)C(c2ccccc2)C1 (single isomer, unassigned) [Example 201a, N-[4-(4-methyl-(2R or 2S)-phenylpiperazine-1-carbonyl)-3-piperidin-1-ylphenyl]cyclopropanecarboxamide] | 63.1 to 251 |
